US12503475B2 (Centessa Pharmaceuticals (UK) Limited, priority 2020, dated 2025)

Biological target: T1, human orexin type 2 receptor (hOX2R) (Homo sapiens, UniProt O43614)
T1 construct: expressed in transfected cells
T1 sequence (O43614 1-444): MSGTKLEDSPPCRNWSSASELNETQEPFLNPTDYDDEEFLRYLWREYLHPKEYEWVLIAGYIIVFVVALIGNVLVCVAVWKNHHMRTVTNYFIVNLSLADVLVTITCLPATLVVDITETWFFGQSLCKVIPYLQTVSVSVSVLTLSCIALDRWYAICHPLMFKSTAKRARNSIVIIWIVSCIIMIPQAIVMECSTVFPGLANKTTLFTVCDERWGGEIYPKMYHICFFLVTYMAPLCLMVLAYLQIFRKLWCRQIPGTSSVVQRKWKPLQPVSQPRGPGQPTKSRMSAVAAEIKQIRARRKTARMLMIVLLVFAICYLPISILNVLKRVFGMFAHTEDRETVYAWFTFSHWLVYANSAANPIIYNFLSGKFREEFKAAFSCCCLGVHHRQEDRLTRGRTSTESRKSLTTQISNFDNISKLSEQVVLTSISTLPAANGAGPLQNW
Experiment: Measurement of orexin type 2 receptor agonist activity (FLIPR calcium fluorescence)
Format: cell-based
Details: CHO cells expressing hOX2R, FLIPR calcium fluorescence; for EC50: read-out: hOx2 pEC50 (converted); for Emax: CHO, read-out: hOx2 Emax (%)
Outline: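 Agonism was read as fluorescence in cells stably expressing human OX2R. E. is the response at 10 μM relative to orexin A as full agonist (100%).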

## CC(C)(O)C(=O)N1CC2(CC2)C(NS(C)(=O)=O)C1Cc1cccc(-c2cc(F)cc(F)c2)c1F (racemic) [Compound 28, N-(5-(2-hydroxy-2-methylpropanoyl)-6-((2,3′,5′-trifluoro-[1,1′-biphenyl]-3-yl)methyl)-5-azaspiro[2.4]heptan-7-yl)methanesulfonamide]
  EC50: 10 to 100 nM
  Emax: 90 to 100%

## CN(C)S(=O)(=O)N[C@@H]1[C@H](Cc2cc(F)cc(-c3ccccc3)c2F)N(C(=O)[C@H](O)CF)CC12CC2 [Compound 353]
  EC50: 1 to 10 nM
  Emax: 90 to 100%

## CC(C)(O)C(=O)N1CC2(CC2)[C@H](NS(=O)(=O)CF)[C@@H]1Cc1cccc(-c2ccccc2)c1F [Compound 134, 1-fluoro-N-((6S,7S)-6-((2-fluoro-[1,1′-biphenyl]-3-yl)methyl)-5-(2-hydroxy-2-methylpropanoyl)-5-azaspiro[2.4]heptan-7-yl)methanesulfonamide]
  EC50: 1 to 10 nM
  Emax: 90 to 100%

## CC(C)C(=O)N1CC2(CC2)[C@H](NS(=O)(=O)N(C)C)[C@@H]1Cc1cccc(-c2ccccc2)c1 (racemic) [Compound 304]
  EC50: 10 to 100 nM
  Emax: 90 to 100%

## O=C(NCC1(F)CC1)N1CC2(CC2)[C@H](NS(=O)(=O)C(F)F)[C@@H]1Cc1cccc(-c2cc(F)cc(F)c2)c1F [Compound 235, (6S,7S)-7-((difluoromethyl)sulfonamido)-N-((1-fluorocyclopropyl)methyl)-6-((2,3′,5′-trifluoro-[1,1′-biphenyl]-3-yl)methyl)-5-azaspiro[2.4]heptane-5-carboxamide]
  EC50: 1 to 10 nM
  Emax: 90 to 100%

## CS(=O)(=O)N[C@H]1[C@@H](Cc2cccc(-c3cccc(F)c3)c2F)N(C(=O)N2CCC2)CC12CC2 [Compound 26, N-((6R,7R)-5-(azetidine-1-carbonyl)-6-((2,3′-difluoro-[1,1′-biphenyl]-3-yl)methyl)-5-azaspiro[2.4]heptan-7-yl)methanesulfonamide]
  EC50: 10 to 100 nM
  Emax: 90 to 100%

## CC(C#N)NC(=O)N1CC2(CC2)[C@H](NS(C)(=O)=O)[C@@H]1Cc1cccc(-c2ccccc2)c1F (stereo partly drawn) [Compound 341, (6S,7S)-N-(1-cyanoethyl)-6-((2-fluoro-[1,1′-biphenyl]-3-yl)methyl)-7-(methylsulfonamido)-5-azaspiro[2.4]heptane-5-carboxamide]
  EC50: 0.0794 to 1 nM
  Emax: 90 to 100%

## CC[C@@](C)(O)C(=O)N1CC2(CC2)[C@H](NS(=O)(=O)CF)[C@@H]1Cc1cccc(-c2cccc(F)c2)c1F [Compound 379, N-((6S,7S)-6-((2,3′-difluoro-[1,1′-biphenyl]-3-yl)methyl)-5-((R)-2-hydroxy-2-methylbutanoyl)-5-azaspiro[2.4]heptan-7-yl)-1-fluoromethanesulfonamide]
  EC50: 1 to 10 nM
  Emax: 90 to 100%

## CS(=O)(=O)N[C@@H]1[C@H](Cc2cccc(-c3ccccc3F)c2)N(C(=O)[C@H]2CCO2)CC12CC2 [Compound 40, N-((6S,7S)-6-((2′-fluoro-[1,1′-biphenyl]-3-yl)methyl)-5-((R)-oxetane-2-carbonyl)-5-azaspiro[2.4]heptan-7-yl)methanesulfonamide]
  EC50: 10 to 100 nM
  Emax: 90 to 100%

## COC1CN(C(=O)N2CC3(CC3)[C@H](NS(=O)(=O)CF)[C@@H]2Cc2cccc(-c3cccc(F)c3)c2F)C1 [Compound 400, N-((6S,7S)-6-((2,3′-difluoro-[1,1′-biphenyl]-3-yl)methyl)-5-(3-methoxyazetidine-1-carbonyl)-5-azaspiro[2.4]heptan-7-yl)-1-fluoromethanesulfonamide]
  EC50: 1 to 10 nM
  Emax: 90 to 100%

## CN(C)S(=O)(=O)N[C@@H]1[C@H](Cc2cccc(-c3ccccc3)c2F)N(C(=O)N2CC(F)C2)CC12CC2 [Compound 117, N-((6S,7S)-6-((2-fluoro-[1,1′-biphenyl]-3-yl)methyl)-5-(3-fluoroazetidine-1-carbonyl)-5-azaspiro[2.4]heptan-7-yl)-N,N-dimethylsulfuric diamide]
  EC50: 0.0794 to 1 nM
  Emax: 90 to 100%

## CCNC(=O)N1CC2(CC2)C(NS(=O)(=O)CC)C1Cc1cccc(-c2ccccc2)c1F (racemic) [Compound 52, N-ethyl-7-(ethylsulfonamido)-6-((2-fluoro-[1,1′-biphenyl]-3-yl)methyl)-5-azaspiro[2.4]heptane-5-carboxamide]
  EC50: 0.0794 to 1 nM
  Emax: 90 to 100%

## CS(=O)(=O)N[C@@H]1[C@H](Cc2cc(F)cc(-c3cccc(F)c3)c2F)N(C(=O)[C@H]2CCO2)CC12CC2 [Compound 122, N-((6S,7S)-5-((R)-oxetane-2-carbonyl)-6-((2,3′,5-trifluoro-[1,1′-biphenyl]-3-yl)methyl)-5-azaspiro[2.4]heptan-7-yl)methanesulfonamide]
  EC50: 0.0794 to 1 nM
  Emax: 90 to 100%

## O=C([C@H]1CCO1)N1CC2(CC2)[C@H](NS(=O)(=O)C(F)F)[C@@H]1Cc1cccc(-c2cc(F)cc(F)c2)c1 [Compound 214, N-((6S,7S)-6-((3′,5′-difluoro-[1,1′-biphenyl]-3-yl)methyl)-5-((R)-oxetane-2-carbonyl)-5-azaspiro[2.4]heptan-7-yl)-1,1-difluoromethanesulfonamide]
  EC50: 1 to 10 nM
  Emax: 90 to 100%

## O=C([C@H]1CCO1)N1CC2(CC2)[C@H](NS(=O)(=O)CF)[C@@H]1Cc1cccc(-c2cccc(F)c2F)c1F [Compound 168, 1-fluoro-N-((6S,7S)-5-((R)-oxetane-2-carbonyl)-6-((2,2′,3′-trifluoro-[1,1′-biphenyl]-3-yl)methyl)-5-azaspiro[2.4]heptan-7-yl)methanesulfonamide]
  EC50: 1 to 10 nM
  Emax: 90 to 100%

## CS(=O)(=O)N[C@@H]1[C@H](Cc2cccc(-c3ccccc3)c2F)N(C(=O)[C@H](O)C(F)(F)F)CC12CC2 [Compound 56, N-((6S,7S)-6-((2-fluoro-[1,1′-biphenyl]-3-yl)methyl)-5-((S)-3,3,3-trifluoro-2-hydroxypropanoyl)-5-azaspiro[2.4]heptan-7-yl)methanesulfonamide]
  EC50: 1 to 10 nM
  Emax: 90 to 100%

## O=C(C1CCC1)N1CC2(CC2)C(NS(=O)(=O)CF)C1Cc1cccc(-c2ccccc2)c1F (racemic) [Compound 106, N-(5-5(cyclobutanecarbonyl)-6-((2-fluoro-[1,1′-biphenyl]-3-yl)methyl)-5-azaspiro[2.4]heptan-7-yl)-1-fluoromethanesulfonamide]
  EC50: 0.0794 to 1 nM
  Emax: 90 to 100%

## COCCOCCS(=O)(=O)N[C@@H]1[C@H](Cc2cccc(-c3ccccc3)c2)N(C(=O)[C@H]2CCO2)CC12CC2 [Compound 74, N-((6S,7S)-6-([1,1′-biphenyl]-3-ylmethyl)-5-((R)-oxetane-2-carbonyl)-5-azaspiro[2.4]heptan-7-yl)-2-(2-methoxyethoxy)ethane-1-sulfonamide]
  EC50: 10 to 100 nM
  Emax: 90 to 100%

## CCS(=O)(=O)N[C@@H]1[C@H](Cc2cccc(-c3ccccc3)c2)N(C(=O)[C@H](O)C(F)(F)F)CC12CC2 [Compound 58, N-((6S,7S)-6-([1,1′-biphenyl]-3-ylmethyl)-5-((S)-3,3,3-trifluoro-2-hydroxypropanoyl)-5-azaspiro[2.4]heptan-7-yl)ethanesulfonamide]
  EC50: 1 to 10 nM
  Emax: 90 to 100%

## CS(=O)(=O)NC1C(Cc2cccc(-c3cc(F)cc(F)c3)c2F)N(C(=O)C2CCC2)CC12CC2 (racemic) [Compound 29, N-(5-(cyclobutanecarbonyl)-6-((2,3′,5′-trifluoro-[1,1′-biphenyl]-3-yl)methyl)-5-azaspiro[2.4]heptan-7-yl)methanesulfonamide]
  EC50: 0.0794 to 1 nM
  Emax: 90 to 100%

## CC(C)S(=O)(=O)N[C@@H]1[C@H](Cc2cc(F)cc(-c3ccccc3)c2F)N(C(=O)[C@H]2CCO2)CC12CC2 [Compound 396]
  EC50: 1 to 10 nM
  Emax: 90 to 100%

## CS(=O)(=O)N[C@@H]1[C@H](Cc2cccc(-c3ccccc3)c2F)N(C(=O)N2CCC2)CC12CC2 [Compound 35, N-((6S,7S)-5-(azetidine-1-carbonyl)-6-((2-fluoro-[1,1′-biphenyl]-3-yl)methyl)-5-azaspiro[2.4]heptan-7-yl)methanesulfonamide]
  EC50: 1 to 10 nM
  Emax: 90 to 100%

## CNS(=O)(=O)N[C@@H]1[C@H](Cc2cccc(-c3ccccc3)c2F)N(C(=O)[C@H]2CCO2)CC12CC2 [Compound 65, N-((6S,7S)-6-((2-fluoro-[1,1′-biphenyl]-3-yl)methyl)-5-((R)-oxetane-2-carbonyl)-5-azaspiro[2.4]heptan-7-yl)-N-methylsulfuric diamide]
  EC50: 1 to 10 nM
  Emax: 90 to 100%

## O=C(NC(CF)CF)N1CC2(CC2)[C@H](NS(=O)(=O)CF)[C@@H]1Cc1cccc(-c2ccccc2)c1F [Compound 369, (6S,7S)-N-(1,3-difluoropropan-2-yl)-6-((2-fluoro-[1,1′-biphenyl]-3-yl)methyl)-7-((fluoromethyl)sulfonamido)-5-azaspiro[2.4]heptane-5-carboxamide]
  EC50: 1 to 10 nM
  Emax: 90 to 100%

## CCS(=O)(=O)N[C@@H]1[C@H](Cc2cccc(-c3cc(F)cc(F)c3)c2F)N(C(=O)[C@H]2CCO2)CC12CC2 [Compound 185, N-((6S,7S)-5-((R)-oxetane-2-carbonyl)-6-((2,3′,5′-trifluoro-[, 1′-biphenyl]-3-yl)methyl)-5-azaspiro[2.4]heptan-7-yl)ethanesulfonamide]
  EC50: 0.0794 to 1 nM
  Emax: 90 to 100%
